Source: patent US10464930B2, “Compositions and methods for treating estrogen-related medical disorders” (THE BOARD OF TRUSTEES OF THE UNIVERSITY OF ILLINOIS, priority 2012, dated 2019)
Read-outs that look alike come from different tables or passages of the source.

Legend:
[1] = tested on: LTP in the CA1 region of hippocampal sections; assay: LTP after theta burst stimulation in hippocampal slices; design: species or system mouse; conditions: for end average potentiation of fEPSP (LTP): 30 min prior to TBS, slices of 16-month male 3×Tg mice
Description: LTP was measured after TBS in the CA1 region of hippocampal sections from 16 month male 3×Tg mice or WT controls. Test compounds (SERMs 100 nM; G15 100 nM) were added 30 min prior to TBS. […] (C) Secondary analysis of theta bursts indicate action both during induction and stabilization of LTP, through a GPR30 dependent mechanism.
LTP was measured after TBS in the CA1 region of hippocampal sections from 8 month old male C57Bl/6 mice. G15 (100 nM) was added 30 min prior to TBS and continued throughout. G15 had no effect on LTP, which reached levels equal to WT background in FIG. 2 for both controls and G15.
LTP was measured in the CA1 region of hippocampal sections from 16 month male 3×Tg mice using the method detailed in manuscript, with the exception of a variable interburst interval during TBS. ODQ (10 nM) was added 30 min prior to TBS and continued throughout.
Electrophysiology. All experiments used 16-month old male 3×Tg transgenic or age-matched WT background controls. For electrophysiology, mice were rapidly decapitated, and brains were removed into an ice-cold aCSF solution (in mM: NaCl 124, KCl 3.0, KH2PO4 1.25, NaHCO3 25.7, D-glucose 10, L-ascorbate 2.0, MgSO4 2.5, and CaCl2 3.3) and sectioned on a tissue chopper into 400 um sections. Slices were transported to a 37° C. solution of aCSF, continuously bubbled with 95% O2/5% CO2, and allowed to recover at least 60 min before experimentation. After placement of a stimulation electrode in the Schaffer commissural fibers and recording electrodes with 2 M NaCl solution into the stratum radiatum of the CA1 area, stimulus intensity was set to evoke submaximal fEPSP and continuously monitored at 20 s intervals for at least 15 min to establish a stable baseline. SERMs (100 nM) and G15 (100 nM) were prepared fresh in perfusate and started at least 30 min before LTP induction to reach a new baseline after enhancement of basal synaptic transmission was observed(97). LTP was induced using a theta burst induction protocol by applying 10 bursts of four pulses at 100 Hz with an interburst interval of 200 msec. Resulting fEPSP was monitored at 20 s intervals for […] post TBS.
Long-term potentiation (LTP) in the CA1 field of the hippocampus is a well-studied cellular model for learning and memory. […] At 16 months, an advanced age at which Alzheimer's-like neuropathology is well developed in these animals, studies on LTP have not previously been reported. We observed a robust, reproducible deficit in LTP in these aged transgenic mice, with field excitatory post-synaptic potentials (fEPSP) showing an end average potentiation of 97.0±6.4% of baseline at 45 min post-TBS, compared to 134.7±10.3% observed in the wild type (WT) controls (FIG. 2A,B).
To determine if drugs enhanced LTP by altering physiological responses during LTP induction, such as NMDA receptor-mediated currents or downstream events involved in expression or stabilization, the postsynaptic responses to theta bursts were quantified as previously described (56, 57).

[2] = tested on: primary cortical neurons exposed to OGD; assay: Oxygen glucose deprivation (OGD) neuroprotection, MTT; type: cell-based, rat; conditions: for neuroprotection (cell survival by MTT): 2 h OGD, survival at 24 h, SERMs 100 nM, normalized to E2 10 nM; for neuroprotective activity with GPR30 antagonist: plus G15 (100 nM); for neuroprotective activity with GPR blocker: plus pertussis toxin (100 ng/mL)
[3] = CNS bioavailability by LC-MS/MS; type: in vivo, mouse; conditions: 5 mg/kg i.p., up to 2 h after administration
Description: (§1) CNS Bioavailability & NOX Measurement. All experiments were performed on either male C57B1/6 mice (Charles River Laboratory) or eNOS(−/−) animals. Animals were injected (i.p.) at various time points before sacrifice at the doses specified. After euthanasia via CO2, plasma was collected, and cortices and hippocampi were collected after PBS perfusion and stored at −80° C. Tissue samples were weighed and extracted with methanol. Plasma samples were extracted with cold acetonitrile. Quantitative analysis of drug concentrations in plasma and brain used internal standards spiked into plasma and brain homogenates before liquid extraction with acetonitrile or methanol, and separation and measurement was performed with LC-MS/MS tandem mass spectrometry. The supernatant (deproteinized) was analyzed by chemiluminescence with SIEVERS 280i nitric oxide analyzer.
(§2) Brain and plasma NO levels were assessed by measuring metabolic oxidation products, NO2^− and NO3^− (NOx), using chemiluminescence detection. […] To assess the relative contribution of eNOS, DMA and NO-DMA were administered to eNOS(−/−) animals.

[4] = tested on: NO levels (NOx) in plasma and hippocampus; assay: NOx measurement in plasma and CNS by chemiluminescence; type: in vivo, mouse; conditions: 2 mg/kg; for NOx in plasma or hippocampus, eNOS(−/−): eNOS(−/−) animals; for NOx in hippocampus and plasma, WT: one hour after injection, WT mice
Description: Levels of NO were assessed by measuring breakdown products 1 h after i.p. injection of SERMs (2 mg/kg) using chemiluminescence detection.
as §1, §2

[5] = tested on: scopolamine- or L-NAME-induced memory deficit; assay: Step through passive avoidance (STPA); type: in vivo, mouse; conditions: for reversal of scopolamine-induced memory deficit (STPA latency): 2 mg/kg i.p. 20 min prior to training, scopolamine 1 mg/kg, C57Bl/6, 24 h; for reversal of L-NAME-induced cognitive deficit (STPA) / reversal of scopolamine-induced deficit in eNOS KO mice (STPA): 2 mg/kg; for reversal of L-NAME-induced cognitive deficit (STPA): L-NAME 50 mg/kg 30 min prior to training
[6] = tested on: clotting cascades (PT, aPTT); assay: Anticoagulation: PT and aPTT after i.p. dosing; type: in vivo, mouse; conditions: for anticoagulation with impaired NOS function: 2 mg/kg 1 h prior, L-NAME 50 mg/kg 30 m prior to collection; for PT / aPTT / anticoagulant effect at 3 h: 2 mg/kg i.p.; for PT / aPTT: 1 h
Description: Blood was collected by cardiac puncture and PTT and aPTT were determined 1 or 3 h after i.p. drug administration (2 mg/kg).
Anticoagulation. SERMs were injected (i.p.) 1 h before blood collection, and L-NAME was injected (i.p.) 30 min before blood collection. The mouse was sedated by exposing it to CO2 until unconscious and blood was collected in 4.5 mL BD Vacutainer Glass Evacuated Blood Collection Tubes (with 0.105 M buffered sodium citrate) by cardiac puncture. The blood samples were centrifuged at 300 g for 30 min to separate the plasma from the blood, and then 200 uL of plasma was taken from each sample and the PT and aPTT were measured using an ACL 7000 Coagulation Analyzer. The analyzer injects […] of PT-fibrinogen (lyophilized rabbit brain calcium thromboplastin with stabilizers, polybrene, buffer and preservatives) to 75 μL of plasma sample to measure the PT, and 75 μL of synthAFAX (0.025 M)+100 μL of CaCl2 (0.02 M) were added to 75 μL of plasma to measure aPTT. The analysis was at 37° C. using a photo sensor at λ=671 nm.

isolated aortic rings = assay: Aortic ring relaxation
ERα = target: T1, ERα (Homo sapiens, UniProt P03372); assay: ER ligand binding by competitive E2 displacement (ERα)
T1 sequence (P03372 1-595): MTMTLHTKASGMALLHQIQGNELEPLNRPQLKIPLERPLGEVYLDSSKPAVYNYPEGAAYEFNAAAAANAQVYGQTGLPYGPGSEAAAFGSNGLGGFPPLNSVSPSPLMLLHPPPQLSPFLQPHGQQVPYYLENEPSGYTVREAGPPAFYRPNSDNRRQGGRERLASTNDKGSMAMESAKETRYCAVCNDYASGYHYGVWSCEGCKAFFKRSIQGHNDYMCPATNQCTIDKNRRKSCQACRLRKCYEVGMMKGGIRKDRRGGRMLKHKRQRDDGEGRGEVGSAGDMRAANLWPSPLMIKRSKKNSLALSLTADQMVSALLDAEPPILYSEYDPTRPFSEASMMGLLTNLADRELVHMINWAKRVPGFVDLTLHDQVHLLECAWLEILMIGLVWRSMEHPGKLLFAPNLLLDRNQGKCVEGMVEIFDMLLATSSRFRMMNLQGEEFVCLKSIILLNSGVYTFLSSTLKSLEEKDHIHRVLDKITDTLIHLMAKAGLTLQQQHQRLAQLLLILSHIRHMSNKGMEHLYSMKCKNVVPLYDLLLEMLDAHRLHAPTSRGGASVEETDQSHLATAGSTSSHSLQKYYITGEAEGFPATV

ERβ = ERβ (Homo sapiens, UniProt Q92731); assay: ER ligand binding by competitive E2 displacement (ERβ)
Sequence of ERβ (Q92731 whole entry, species assumed): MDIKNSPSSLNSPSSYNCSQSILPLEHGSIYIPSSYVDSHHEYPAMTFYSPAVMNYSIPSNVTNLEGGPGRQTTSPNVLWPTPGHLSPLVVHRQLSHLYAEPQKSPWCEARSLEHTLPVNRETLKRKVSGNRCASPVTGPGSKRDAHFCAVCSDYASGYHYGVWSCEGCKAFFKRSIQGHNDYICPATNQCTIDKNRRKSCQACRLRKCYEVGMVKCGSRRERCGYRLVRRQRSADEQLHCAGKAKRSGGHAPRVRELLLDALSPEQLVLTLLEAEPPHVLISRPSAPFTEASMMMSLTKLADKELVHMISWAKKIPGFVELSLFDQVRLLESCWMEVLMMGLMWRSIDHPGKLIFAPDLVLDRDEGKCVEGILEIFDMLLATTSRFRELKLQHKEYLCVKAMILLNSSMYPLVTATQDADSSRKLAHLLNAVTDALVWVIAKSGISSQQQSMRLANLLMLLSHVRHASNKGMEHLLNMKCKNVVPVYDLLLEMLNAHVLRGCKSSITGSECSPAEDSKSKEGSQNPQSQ

[7] = Rattus norvegicus, read-out: EC50 for relaxation

Row | SMILES | neuroprotection (cell survival by MTT) [2] | neuroprotective activity with GPR30 antagonist [2] | neuroprotective activity with GPR blocker [2] | enhancement of subsequent theta bursts during LTP induction ([1]; 100 nM, 3×Tg slices) | end average potentiation of fEPSP (LTP) ([1]; 100 nM) | NOx in plasma or hippocampus, eNOS(−/−) [4] | NOx in hippocampus and plasma, WT [4] | reversal of scopolamine-induced memory deficit (STPA latency) [5] | reversal of L-NAME-induced cognitive deficit (STPA) [5] | reversal of scopolamine-induced deficit in eNOS KO mice (STPA) [5] | anticoagulation with impaired NOS function [6] | PT [6] | aPTT [6] | anticoagulant effect at 3 h [6] | EC50 (isolated aortic rings; [7]) | efficacy (relaxation) (isolated aortic rings; intact aortic rings) | other results
1 | Brc1cc2c(cc1[C@@H]1Nc3ccccc3[C@@H]3C=CC[C@@H]31)OCO2 [Compound G15] |  |  |  |  |  |  |  |  |  |  |  |  |  |  |  |  | effect on LTP in WT slices ([1]; 100 nM, WT C57Bl/6 slices, absence of DMA): no effect
2 | Oc1ccc(-c2sc3cc(O)ccc3c2Oc2ccc(OCCN3CCCCC3)cc2)cc1 [DMA, desmethylarzoxifene] | robust neuroprotection | blocked | blocked | augmented | 144.9±8.7 % of baseline | no effect | greater than twofold elevation | restored the cognitive deficit | not able to restore cognition | not able to restore cognition | did not persist in the presence of NOS blockade | increased PT | significantly increased | decreased to that of control samples | 3500 ± 2500 nM | ~100% | end fEPSP (LTP) with GPR30 blocker ([1]; DMA 100 nM plus G15 (100 nM), 3×Tg slices): 96.8±7.10%; effect on LTP with ODQ ([1]; plus ODQ (10 nM), 3×Tg slices, preliminary): ODQ blocks effect of DMA; brain regional retention [3]: preferential retention in the hippocampus over the cortex; efficacy after endothelium removal or NOS inhibition (isolated aortic rings; removal of the endothelium or L-NAME): significant decrease in the efficacy
3 | Oc1ccc2c(Oc3ccc(OCCN4CCCCC4)cc3)c(-c3ccc(F)cc3)sc2c1 [F-DMA] |  |  |  |  |  |  |  |  |  |  |  |  |  |  |  |  | IC50 (ERα; competitive E2 displacement): 17 ± 0.6 nM; EC50 (isolated aortic rings; read-out: EC50 for relaxation, intact aortic rings, mean, S.D.): 2400 ± 1200 nM
4 | O=[N+]([O-])OCCCC1CCN(CCOc2ccc(Oc3c(-c4ccc(O)cc4)sc4cc(O)ccc34)cc2)CC1 [NO-DMA, 3-(1-(2-(4-(6-hydroxy-2-(4-hydroxyphenyl)benzo[b]thiophen-3-yloxy)phenoxy)ethyl)piperidin-4-yl)propyl nitrate] | robust neuroprotection identical to DMA | blocked | blocked | augmented | 144.2±5.2 % of baseline | increase NOx significantly | greater than twofold elevation | equivalent restoration of protection to DMA | reversed only by NO-DMA | only NO-DMA showed efficacy | significant anticoagulation compared to control | increased PT, but only NO-DMA reached significance | significantly increased | remained significantly higher than control | 130 ± 90 nM |  | IC50 (ERα): 21.4 ± 6.7 nM; IC50 (ERβ): 24.4 ± 9.6 nM; neuroprotection with ERα blockade ([2]; plus ICI 182780 (100 nM), added 45 min prior to OGD): did not block this effect; attenuation of neuroprotective activity by NOS antagonist ([2]; plus L-NAME (100 μM)): ineffective; attenuation of neuroprotective activity by PI3K inhibitor ([2]; plus LY294002 (10 μM)): effective; EC50 (isolated aortic rings; Rattus norvegicus, read-out: EC50 for relaxation, L-NAME): 1000 ± 540 nM; EC50 (isolated aortic rings; Rattus norvegicus, read-out: EC50 for relaxation, endothelium-denuded): 900 ± 690 nM; maximal relaxation response (isolated aortic rings; intact aortic rings): induced maximal relaxation; potency relative to DMA (isolated aortic rings; intact aortic rings): at least ten-fold increased potency
5 | COc1ccc(-c2sc3cc(O)ccc3c2Oc2ccc(OCCN3CCCCC3)cc2)cc1 [arzoxifene] |  |  |  |  |  |  |  | restored the cognitive deficit |  |  |  |  |  |  | 3300 ± 2500 nM |  | 
6 | O=C(c1ccc(OCCN2CCCCC2)cc1)c1c(-c2ccc(O)cc2)sc2cc(O)ccc12 [raloxifene, Raloxifene] |  |  |  |  |  |  |  | restored the cognitive deficit |  |  |  |  |  |  | 4000 ± 2900 nM | ~100% | 
